The subject of data set [1] is HMEC 1585 normal human mammary epithelial cells. The method, then:
Cells were cultured and treated as described above. […] Experiments were repeated at least three times, and data expressed as relative survival (treated/control×100%) means±SEM. […] The multi-target model was used to describe the shape of relative survival curves. In this model, a final slope (D0) resulting from multiple-event killing and quasithreshold (Dq) doses were used to represent the size or width of the shoulder of the curve. The extrapolation number (n) is also a measure of the width of the shoulder. The three parameters, n, Do, and Dq were related by the expression: loge n=Dq/Do.
Cells were treated with β-lap with or without dicoumarol for 2 h. […] Data were expressed as relative survival (treated/control×100%). Experiments were repeated at least three times, and data expressed as relative survival means±SEM. […] Human mammary epithelial cells were plated in 48 well dishes in growth media containing a 50:50 mixture of MGEM/DME:F12 medium supplemented with insulin, human epidermal growth factor and hydrocortisone.

Data set [2] concerns PC-3 cells. Description: Alkaline comet assay. In kind it is cell-based, human. As to conditions: PC-3 cells after exposure to 4 μM β-lap. On the procedure:
DNA lesions, including total base damage, DSBs and SSBs, versus DSBs were assessed using single-cell gel electrophoretic comet assays under alkaline or neutral conditions, respectively (TREVIGEN, Gaithersburg, Md.). Slides were stained with SYBR Green and visualized using a Nikon Eclipse TE2000-E fluorescence microscope (Melville, N.Y.). Digital photomicrographs were taken and comet tail lengths quantified using NIH Image J software. Each datum point represents an average of 100 cells±SE, and data are representative of experiments performed in triplicate.

Data set [3] relates to PC-3 cells. Description: Intracellular NAD+ and ATP levels. It counts as cell-based, human. The conditions noted are these: β-lap exposure. On the procedure: ATP levels were analyzed from whole-cell extracts using CellTiter-Glo Luminescent Cell Viability Assays (Promega, Madison, Wis.) following the manufacture's instructions. Data were graphed as means±SE from at least three independent experiments in triplicates.

For data set [4], the system named is Human (shown) or mouse rbs. The data set is described as follows: Hemolysis of red blood cells. The conditions noted are these: rbs incubated with HPβCD alone, HPβCD-β-lap, or β-lap alone in DMSO. In kind it is cell-based. The method, then: Human (shown) or mouse rbs were incubated with HPβCD alone or HPβCD-β-lap, or β-lap alone in DMSO.
In the next data set the target is NQO1 (Homo sapiens, UniProt P15559). The data set is described as follows: NADH recycling assay (NQO1 futile cycling). It counts as biochemical. The arrangement: S9 Supernatants were prepared from cells in mid-log to late log phase growth; endogenous in cells; host or cells: cancer cell lines, mostly from a non-small cell lung cancer panel (e.g. Calu-3); S9 supernatants. As to conditions: in 5 min, NQO1 futile cycle. The method, then:
Assays were performed with either purified NQO1 or S9 extracts from MCF-7:WS8, or other cancer or normal cells. For the assay using purified NQO1, […] of recombinant human NQO1 was mixed with 200-500 μM NADH in 50 mM potassium phosphate buffer, pH 7.0.

These results are taken from patent publication US9469878B2, “Methods of treating cancer comprising targeting NQO1” (The Board of Regents of the University of Texas System, priority 2010, dated 2016).

NQO1, sequence (P15559 whole entry): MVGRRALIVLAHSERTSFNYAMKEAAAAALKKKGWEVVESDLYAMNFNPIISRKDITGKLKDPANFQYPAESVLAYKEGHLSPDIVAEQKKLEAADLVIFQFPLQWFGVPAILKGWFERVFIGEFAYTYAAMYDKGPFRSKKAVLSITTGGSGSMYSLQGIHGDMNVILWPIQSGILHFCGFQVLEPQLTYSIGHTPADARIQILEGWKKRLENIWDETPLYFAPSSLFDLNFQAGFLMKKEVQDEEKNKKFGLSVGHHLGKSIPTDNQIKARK

In the case of `CC1(C)CCC2=C(O1)c1ccccc1C(=O)C2=O` [β-Lap, 3,4-dihydro-2,2-dimethyl-2H-naphtho[1,2-b]pyran-5,6-dione], the “LD50 β-Lap” value in data set [1] is over 10. In addition, the “IR dose equivalent to DNA lesions by alkaline assays” value in the data set with PC-3 cells [2] is 20 Gy. Also, the “Time to exhaustion of NAD+ and ATP levels” value in the data set on PC-3 cells [3] is at most 120 min. Also, the Hemolysis entry in data set [4] is “hemolysis by HPβCD and not β-lapachone”. Further, at NQO1, the “NAD(P)H used per mole of β-lap” value is over 60 mol.
